Measured values as given in US9534221B2, “Targeting the steroidogenic pathway for treating and/or preventing allergic diseases” (National Jewish Health, priority 2013, dated 2017).

Legend:
[1] = test system: OVA-sensitized CD8-deficient mice; experiment: Secondary allergen challenge model with adoptive transfer of CD8+ T cells; assay type: in vivo, mouse
Description: The experimental protocol for sensitization and challenge to OVA was as described previously (Oka, H. et al. Cell. Immunol. 206, 7-15 (2000); Sundrud, M. S, and Nolan, M. A. Curr. Opin. Immunol. 22, 286-292 (2010)), with some modification. CD8-deficient mice were sensitized with 20 μg of OVA (Calbiochem, La Jolla, Calif.) emulsified in 2.25 mg of alum (AlumImuject; Pierce, Rockford, Ill.) on days 0 and 14 by intraperitoneal injection. Mice were challenged with 0.2% OVA for 20 minutes on days 21, 22, and 23 using an ultrasonic nebulizer (model NE-U07; Omron Healthcare, Kyoto, J P). […] Two hours after transfer, mice were challenged (secondary) with 1% OVA for 20 minutes. Airway function was measured and samples were collected on day 38. Airway function was assessed as described previously (Oka, H. et al. Cell. Immunol. 206, 7-15 (2000); Sundrud, M. S, and Nolan, M. A. Curr. Opin. Immunol. 22, 286-292 (2010)) by measuring changes in airway resistance (RL) in response to increasing doses of inhaled methacholine (Sigma, St. Louis, Mo.). Data were presented as percentage change from the baseline RL values after saline inhalation. […] After measurement of AHR, lungs were lavaged via the tracheal tube with 1 ml of HBSS. The supernatants were collected and IL-4, IL-5, and IL-13 (eBioscience, San Diego, Calif.) levels were measured by ELISA as described previously. Total leukocyte numbers were counted and differentiated as described previously (Oka, H. et al. Cell. Immunol. 206, 7-15 (2000); Sundrud, M. S, and Nolan, M. A. Curr. Opin. Immunol. 22, 286-292 (2010)). Mouse lungs were isolated and fixed in 10% formalin, then embedded in paraffin and cut into 5-μm thick tissue sections. Sections were stained with periodic acid-Schiff (PAS) and mucus-containing cells were quantitated as previously described (Oka, H. et al. Cell. Immunol. 206, 7-15 (2000); Sundrud, M. S, and Nolan, M. A. Curr. Opin. Immunol. 22, 286-292 (2010)). For some experiments, lung tissue expression of Cyp11a1 was identified by immunohistochemistry staining using anti-human Cyp11a1 antibody.

[2] = test system: T-bet and GATA3 expression; experiment: Quantitative RT-PCR of T-bet and GATA3 in CD8+ T cells; assay type: cell-based, mouse; details: CD8+ T cells in IL-2 or IL-2+IL-4, untreated vs 500 μM AMG
Description: CD8^+ effector memory T cells were generated in vitro as previously described (Miyahara, N. et al. J. Immunol. 172, 2549-2558 (2004); Miyahara, N. et al. J. Immunol. 174, 4979-4984 (2005)). In brief, mononuclear cells (MNCs) were processed from the spleens of OT-1 mice followed by stimulation of 1 μg/ml SIINFEKL peptide (SEQ ID NO:1) was used to stimulate cells for 1.5 hours. Two days after culture, living cells were re-isolated using histopaque and cultured in complete RPMI 1640 medium that contained recombinant mouse IL-2 (20 ng/ml) (R&D, Minneapolis, Minn.) or IL-2+IL-4 (20 ng/ml) (Peprotech, Rocky Hill, N.J.). For some experiments, AMG was added into the medium together with IL-2 or IL-2+IL-4. Medium with cytokines was changed every day for a further 4 days. The cells were then re-stimulated with 1 μg/ml SIINFEKL (SEQ ID NO:1) in medium containing 2 μM monensin (Calbiochem, La Jolla, Calif.) for 4 hours. Total RNA was extracted from 5×10^6 differentiated CD8^+ T cells using the RNeasy Mini kit (Qiagen, Valencia, Calif.). 1 μg of total RNA was converted into cDNA using iScript cDNA Synthesis kit (Bio-Rad, Hercules, Calif.). […] Fold-changes were determined using the 2^−ΔΔCt method, with normalization to expression of mouse GAPDH.

[3] = recipients of AMG-treated vs untreated CD8+ T cells
[4] = recipients of CD8+ T cells pretreated with AMG vs untreated cells

## CCC1(c2ccc(N)cc2)CCC(=O)NC1=O (stereo not shown) [AMG, aminoglutethimide]
[1]; recipients of AMG-treated cells
  Cyp11a1-positive cells in the lung: few Cyp11a1-positive cells
[1]; [3]
  IL-4 level in BAL fluid: significantly lower
  IL-5 level in BAL fluid: significantly lower
  IL-13 level in BAL fluid: significantly lower
[1]; [4]
  Lung inflammation (histology): less inflammation
  Numbers of PAS+ mucus-containing goblet cells in lung: significantly decreased
[1]; transfer of 5×10^6 CD8+ T cells differentiated in IL-2 with AMG (500 μM)
  AHR (changes in airway resistance RL): failed to restore AHR or airway inflammation
[1]; transfer of CD8+ T cells differentiated in IL-2 with AMG (500 μM)
  Airway inflammation (cell composition in BAL fluid): failed to restore AHR or airway inflammation
[2]
  GATA3 expression: no significant differences
  T-bet expression: no significant differences
